Laboratory results from US20030206968A1, “Fungicidal mixtures” (priority 1999, published 2003).

How the values were obtained:
Assay type in all cases: in vivo
Botrytis cinerea = assay: Field test, Botrytis cinerea in vines; conditions: Example 33
Procedure: (§1) The trials are carried out under greenhouse (Examples 1 to 32) or field conditions (Examples 33 to 40) in residual or curative applications. The fungicides are applied in single treatments, or in a combination comprising an azolopyrimidine of formula I and a compound selected from the classes (A), (B) and (C) as defined above. The compounds are applied in form of an aqueous spray mix obtained from a concentrated formulation or the technical material.
(§2) For the field study formulated Azolopyrimidine A, B or C and formulated compounds from the classes (A), (B) and (C) were used.
(§3) Assessments of the diseases took place at the indicated day after the application of the compounds. Per cent infected leaf area infected was evaluated. The efficacy of the compounds/compounds mixtures to control the diseases was calculated by using the formula given above under item 4: […]
(§4) Synergy was calculated using the % disease control values of specific treatments for the two COLBY formula given hereinabove
The compounds are applied according to good agricultural practice in the form of an aqueous spray mix obtained from a concentrated formulation or the technical material at a rate of 400 l/ha. The disease control is evaluated according to the formula given for the greenhouse tests. […]

Pyrenophora teres = assay: Greenhouse, Pyrenophora teres on barley, 1 day residual; conditions: Example 10
Procedure: as §1
(§5) 1. Seed is planted in 6 cm diameter plastic pots and maintained in the greenhouse.
(§6) 2. When the primary leaf is fully expanded in the case of cereals or several leaves are present in the case of dicots, formulated test compounds are sprayed with a three nozzle overhead fungicide sprayer to near run-off. Alternatively, a single nozzle overhead track sprayer is used for application of the compounds to cereals at a rate of 200 l/ha. Plants are then allowed to air-dry.
(§7) 3. Inoculation precedes treatment in the case of curative evaluations and follows treatment in case of residual evaluations. For inoculation of powdery mildew disease, plants are set up on greenhouse benches with bottom watering mats and inoculated by dusting them with conidia from infected plants. Between inoculation and treatment for curative evaluations and between treatment and inoculation for residual evaluations, plants are maintained in the greenhouse with bottom watering.
(§8) For inoculation of non-powdery mildew diseases, an aqueous spore suspension of the pathogen is applied to the plant and the plants are kept 1-2 days in a moist infection chamber before being returned to the greenhouse where they are maintained by bottom watering.
(§9) 4. Disease on the foliage as percent leaf area with disease symptoms/signs is evaluated about 7 days after inoculation. In the case of wheat, the tips and bases of the leaves are excluded from the evaluation. [formula]
(§10) 1. Technical compounds are formulated in a solvent/surfactant system consisting of 5% acetone and 0.05% Tween 20 in deionized water. Compounds are dissolved in acetone prior to addition of the water; the Tween 20 can be added through either the acetone or the water. Dilutions are made using the solvent/surfactant system. Formulated compounds are prepared using deionized water.
(§11) 2. Two kinds of controls are included: Plants treated with the solvent/surfactant solution and inoculated (Solvent Blank). Untreated plants which are inoculated (Inoculated Control).
as §3, §4
Fungicidal efficacy of the mixture of Azolopyrimidine C+metconazole (1 day residual) against Pyrenophora teres on barley The tank mix was obtained from a SC formulation containing 100 g Azolopyrimidine C per liter and an EC containing 100 g metconazole per liter.

Puccinia recondita [1] = assay: Greenhouse, Puccinia recondita on wheat, 1 day residual; conditions: Puccinia recondita, Example 11, read-out: Observed Efficacy
Description: as §1, with “The” for “The trials are carried out under greenhouse (Examples 1 to 32) or field conditions (Examples 33 to 40) in residual or curative applications. The”
as §5, §6, §7, §8, §9, §10, §11, §3, §4
Fungicidal efficacy of the mixture of Azolopyrimidine C+metconazole (1 day residual) against Puccinia recondita on wheat The tank mix was obtained from a SC formulation containing 100 g Azolopyrimidine C per liter and an EC containing 100 g metconazole per liter. […]
Fungicidal efficacy of the mixture of Azolopyrimidine C+fluazinam (1 day residual) against Puccinia recondita on wheat The tank mix was obtained from technical material of Azolopyrimidine C and a SC formulation containing 500 g fluazinam per liter. […]

Septoria tritici [2] = assay: Greenhouse, Septoria tritici on wheat, 1 day residual; conditions: Example 9
Procedure: as §1, §5, §6, §7, §8, §9, §10, §11, §3, §4
Fungicidal efficacy of the mixture of Azolopyrimidine C+metconazole (1 day residual) against Septoria tritici on wheat The tank mix was obtained from a SC formulation containing 100 g Azoplopyrimidine C per liter and an EC containing 100 g metconazole per liter.

Septoria tritici [3] = assay: Field test, Septoria tritici on wheat
Procedure: as §1, §2, §3, §4
(§12) The compounds are applied according to good agricultural practice in the form of an aqueous spray mix obtained from a concentrated formulation or the technical material at a rate of 400 l/ha. The disease control is evaluated according to the formula given for the greenhouse tests.
Fungicidal efficacy of the mixture of Azolopyrimidine C+metconazole in the field against Septoria tritici on wheat The tank mix was obtained from an EC formulation containing 150 g Azolopyrimidine C per liter and a SL formulation containing 60 g metconazole per liter. The observed and expected efficacies with different rates are given in Table XXXIVa (19 days after application) and Table XXXIVb (25 days after application):
Fungicidal efficacy of the mixture of (S)-Azolopyrimidine C+kresoxim methyl in the field against Septoria tritici on wheat The tank mix was obtained from a SC formulation containing 100 g (S)-Azolopyrimidine C per liter and a WG formulation containing 500 g kresoxim methyl per kg. The observed and expected efficacies with different rates are given in Tables XXXVa (7 days after application), XXXVb (22 days after application), XXXVc (34 days after application), and XXXVd (41 days after application):
(§13) Fungicidal efficacy of the mixture of Azolopyrimidine A and different cereal fungicides the field against Septoria tritici on wheat 15 days after application The tank mix was obtained from an SC formulation containing 100 g Azolopyrimidine A per liter and commercially available formulations of metconazole, epoxiconazole or propiconazole, respectively.

Puccinia recondita [4] = assay: Field test, Puccinia recondita on wheat; conditions: metconazole 45 g/ha alone, 50 days after application
Procedure: as §1, §2, §3, §4, §12
as §13, with “fungicides in” for “fungicides”, “Puccinia recondita” for “Septoria tritici”, “50” for “15”, “epoxiconazole, propiconazole” for “epoxiconazole”, “kresoxim methyl,” for “propiconazole,”

Blumeria graminis = assay: Field test, Blumeria graminis on wheat; conditions: metconazole 45 g/ha alone, 15 days after application
Procedure: as §1, §2, §3, §4, §12
(§14) Fungicidal efficacy of the mixture of (S)-Azolopyrimidine C+cyproconazole in the field against Blumeria graminis on wheat 17 days after application The tank mix was obtained from a SC formulation containing 100 g (S)-Azolopyrimidine C per liter and an EC formulation containing 60 g cyproconazole per liter.
as §14, with “C+azoxystrobin” for “C+cyproconazole”, “a SC” for “an EC”, “250” for “60”, “azoxystrobin” for “cyproconazole”, “kg.” for “liter.”
as §13, with “fungicides in” for “fungicides”, “Blumeria graminis” for “Septoria tritici”, “kresoxim methyl,” for “propiconazole,”

Rhynchosporium secalis = assay: Greenhouse, Rhynchosporium secalis on barley, 1 day residual; conditions: Example 8; dose rate 100 ppm
Procedure: as §1, §5
2. When the primary leaf is fully expanded in the case of cereals or several leaves are present in the case of dicots, formulated test compounds are sprayed with a three nozzle overhead fungicide sprayer to near run-off. […]
4. Disease on the foliage as percent leaf area with disease symptoms/signs is evaluated about 7 days after inoculation. […]
as §3
Synergy was calculated using the % disease control values of specific treatments for the two COLBY formula given hereinabove […]

Fc1cccc(Cl)c1-c1c(Cl)nc2ncnn2c1NCC(F)(F)F [Azolopyrimidine B, 5-chloro-6-(2-chloro-6-fluorophenyl)-7-(2,2,2-trifluoroethylamino)-[1,2,4]triazolo[1,5-a]pyrimidine]
Observed Efficacy (Botrytis cinerea; dose rate 250 g/ha): 58%

CC1(C)CCC(Cc2ccc(Cl)cc2)C1(O)Cn1cncn1 (stereo not shown) [metconazole]
Observed Efficacy (Pyrenophora teres; dose rate 10 ppm): 4% | Observed Efficacy (Pyrenophora teres; dose rate 25 ppm): 9% | Observed Efficacy (Pyrenophora teres; dose rate 40 ppm): 34% | Observed Efficacy (Pyrenophora teres; dose rate 125 ppm): 68% | Observed Efficacy (Pyrenophora teres; dose rate 200 ppm): 73% | pest or weed control at 2 ppm (Puccinia recondita [1]; dose rate 2 ppm): 0% | pest or weed control at 8 ppm (Puccinia recondita [1]; dose rate 8 ppm): 0% | pest or weed control at 10 ppm (Puccinia recondita [1]; dose rate 10 ppm): 8% | pest or weed control at 25 ppm (Puccinia recondita [1]; dose rate 25 ppm): 14% | pest or weed control at 40 ppm (Puccinia recondita [1]; dose rate 40 ppm): 31% | pest or weed control at 50 ppm (Puccinia recondita [1]; dose rate 50 ppm): 72% | pest or weed control at 125 ppm (Puccinia recondita [1]; dose rate 125 ppm): 97% | Observed Efficacy (Septoria tritici [2]; dose rate 2 ppm): 0% | Observed Efficacy (Septoria tritici [2]; dose rate 5 ppm): 0% | Observed Efficacy (Septoria tritici [2]; dose rate 8 ppm): 0% | Observed Efficacy (Septoria tritici [2]; dose rate 10 ppm): 0% | Observed Efficacy (Septoria tritici [2]; dose rate 25 ppm): 0% | Observed Efficacy (Septoria tritici [3]; Example 34, 19 days after application, dose rate 15 g/ha): 9% | Observed Efficacy (Septoria tritici [3]; Example 34, 19 days after application, dose rate 30 g/ha): 36% | Observed Efficacy (Septoria tritici [3]; Example 34, 19 days after application, dose rate 45 g/ha): 24% | Observed Efficacy (Septoria tritici [3]; Example 34, 25 days after application, dose rate 15 g/ha): 33% | Observed Efficacy (Septoria tritici [3]; Example 34, 25 days after application, dose rate 60 g/ha): 48% | Observed Efficacy (Septoria tritici [3]; metconazole 45 g/ha alone, 15 days after application, field, wheat): 77 | Observed Efficacy (Puccinia recondita [4]): 75 | Observed Efficacy (Blumeria graminis): 54 | Observed Efficacy (Rhynchosporium secalis): 87%

Cc1cc(C)nc(Nc2ccccc2)n1 [pyrimethanil]
Observed Efficacy (Botrytis cinerea; dose rate 500 g/ha): 66%
